In one assay the test system is rat thoracic aorta. Description: Contractile curves to noradrenaline in rat isolated aortic rings (Protocol 1). To be noted: for dose dependency of the antagonising action on noradrenaline contraction: 0.1 and 1 μg/ml; for antagonising the contractile response to noradrenaline (in words): order of potency at 1 μg/ml; for y max, Noradrenaline + Test compound (B): mean ± SEM; for y max Difference (A − B): noradrenaline alone minus noradrenaline + compound. On the procedure: Male Sprague-Dawley rats (250±50 g) were gassed with 80% CO2 and 20% O2 until killed. The thoracic aorta was excised and quickly placed in ice-cold Krebs modified solution composed of NaCl […], […] 4.7 mM, MgSO4 7H2O 1.17 mM, NaHCO3 25 mM, KH2PO4 1.18 mM, CaCl2 2.5 mM, glucose 11 mM and EDTA 0.03 mM. It was then trimmed of fat and connective tissue and cut into 2-3 mm wide rings. Each ring was mounted on two parallel stainless steel hooks in a single water-jacketed 3 ml organ bath containing modified Krebs solution maintained at 37° C. and bubbled with 95% O2 plus 5% CO2. The lower hook was attached to a movable support leg and the upper hook to an FTO3 force transducer (Grass Scientific Instruments, Mitutoyo, Japan) for isometric recordings. Changes in force were amplified (Quadbridge amplifier, Scientific Concepts Inc., Victoria, Australia) and recorded on a MacLab 8E data acquisition system (Adinstruments Pty Ltd., NSW, Australia) linked to an Apple computer (Apple Computer Inc, Cupertina, Calif.). Rings were set at an initial tension of 2 g and allowed to equilibrate for 30 minutes after which time they were re-set to 2 g tension before the commencement of each experimental protocol.
Full concentration-contractile curves were obtained to noradrenaline (0.1 nM-[…]) in the absence and presence of β-estradiol (1 μg/ml); Cpd. 5 (0.1 and 1 μg/ml); Cpd. 7 (0.1 and 1 μg/ml); Cpd. 8 (0.1 and 1 μg/ml) and Cpd. 12 (1 μg/ml) and the vehicle equi-volume DMSO. Only one compound at any one concentration was tested on any one ring from any one animal.
Contractile responses are expressed in g tension (mean+standard error of the mean). Dilatory responses are expressed as a percentage of the contractile force generated by the pre-constricting agent used. Individual concentration-response curves for noradrenaline and acetylcholine±the interventions used were fitted to a logistic equation of the form […] where E is the response, M is the maximum response and K is the concentration eliciting 50% of the maximum response (ie neg log EC50).

Assay [1] concerns horseradish peroxidase (HRP) plus hydrogen peroxide (H2O2). Description: Peroxidase-induced (HRP/H2O2) oxidation of linoleate. The assay is classed as biochemical, horse radish. On the set-up: dose or concentration left out as unconfirmed. From the text:
The test is similar to the peroxyl scavenging described in section 4.5 above, except that horseradish peroxidase (HRP) plus hydrogen peroxide (H2O2), were used instead of the peroxyl radical generator. Increased level of heme is considered as a potential risk factor for atherosclerosis, and heme-containing proteins may be involved in the oxidative modification of LDL. In the presence of H2O2, heme proteins give rise to a powerful oxidant (referred to as compound I) that can oxidatively modify lipids, including those in LDL. We therefore tested the ability of the isoflavone to inhibit such lipid oxidation using horse radish peroxidase as the model heme protein. HRP/H2O2-induced oxidation of linoleate was as described principally by Witting et al (1997) by replacing LDL with linoleate. Linoleate stock was added to PBS at 37° C. to give a final concentration of 300 mM and oxidized by HRP (40 U/mL)/H2O2 (2 mM) in the absence and presence of either 10 mM of Cpd. 7, Cpd. 8 or Cpd. 12, or 25 mM BHT (positive control). Formation of linoleate hydroperoxide was monitored by UV 234 nm using the Perkin Elmer's UV/Vis Lambda 40 spectrophotometer. The test was performed twice as single analysis. An appropriate concentration of alcohol (ethanol and isopropanol; 0.13% -0.2% v/v) was included in the respective control samples.

Assay [2] is described as follows: Peroxyl radical scavenging, AAPH-induced oxidation of linoleate. Further details: dose or concentration left out as unconfirmed. The assay is classed as biochemical. The protocol: Peroxyl radicals are natural side-products of a number of enzymes, including lipoxygenases and cyclo-oxygenase. Peroxyl radicals were generated by the thermo-labile azo-initiator AAPH. AAPH-induced oxidation of linoleate was performed as described previously (Pryor et al., 1993), except that a lower linoleate concentration was used and SDS was omitted. An aliquot of a linoleate stock solution was added to PBS at 37° C. to give a final concentration of […]. Oxidation was initiated by the addition of AAPH (87.5 mM final concentration) in the absence and presence of either 10 mM of Cpd. 7, Cpd. 8 or Cpd. 12 or 500 mM ascorbate (positive control). Formation of linoleate hydroperoxide was monitored by UV 234 nm using a Perkin Elmer's UV/Vis Lambda 40 spectrophotometer. The test was performed twice as single analysis. An appropriate concentration of alcohol (ethanol and isopropanol; 0.13%-0.2% v/v) was included in the respective control samples.

A further assay relates to LDL. Kind of assay: LDL antioxidation test (CuCl2-initiated LDL oxidation, lag time). The format is biochemical, human. The settings on record: 10 mM; Promensil 5 mg/ml. On the procedure: The LDL antioxidation test measures the ability of a compound to directly scavenge free radicals or to chelate transition metals. Thus in this series of experiments, the isoflavones and their derivatives were tested for their ability to act as free radical scavengers.
Fresh whole blood was obtained by venipuncture from healthy human volunteers under 25 years of age and supplemented immediately with EDTA (91 mg/ml) and BHT (4.4 mg/ml). LDL was prepared by step-wise ultracentrifugation within a density gradient of 1.02-1.05 g/cm^3. EDTA and BHT were present throughout all the steps of the isolation. The EDTA/BHT containing stock solution (15-30 mg LDL/ml) was stored in the dark in a nitrogen atmosphere until use, but never longer than two weeks.
Before oxidation experiments, the LDL stock solution was dialyzed in the 100-fold volume of 0.01 M phosphate buffer pH 7.4, 0.16 M NaCl, 0.1 mg/ml chloroamphenicol, which was made oxygen-free by vacuum degassing following by purging with nitrogen. The buffer was changed four times. This EDTA- and BHT-free LDL stock solution was used for all oxidation studies. The stock solution was stored not longer than 24 hr at 4° C. For performing the oxidation experiments, the EDTA- and BHT-free LDL stock solution was diluted with oxygen-saturated 0.01 M phosphate buffer pH 7.4, 0.16 M NaCl and the oxidation was initiated by the addition of a freshly prepared aqueous CuCl2 solution. The final conditions were in all experiments: room temperature, 0.25 mg LDL/ml and […] (see Esterbauer et. al., 1989)
The antioxidant activities of the following compounds were tested: daidzein ([…]), genistein ([…]), glycitein ([…]), biochanin ([…]), formononetin ([…]), Promensil™ (Novogen) (2.5 mg/ml, 5 mg/ml), Cpd. 5 (10 mM), Cpd. 7 (10 mM), Cpd. 8 (10 mM), Cpd. 12 (10 mM), Cpd. 4 (10 mM) and Cpd. 6 (10 mM). In each experiment, controls were used to compare the relative effectiveness of the Novogen isoflavone derivatives to common and well-known antioxidants such as ascorbate (2.5 mM; Vitamin C).

“Also recorded” adds a separate entry of the source.

This is an account of results in patent US20050119301A1, “Treatment of restenosis” (priority 2001, published 2005).

Turning to `O=C1c2ccc(O)cc2OCC1c1ccc(O)cc1` (stereo not drawn) [Cpd. 5], in the assay on rat thoracic aorta, the “dose dependency of the antagonising action on noradrenaline contraction” value (shortened to “dose dependency”) is given as “dose dependent” and the “antagonising the contractile response to noradrenaline (in words)” value (“antagonising the contractile response” for short) is recorded as “active but less potent than β-estradiol; also recorded: equipotent but less potent than Cpd. 12”. Moreover, in the assay on rat thoracic aorta (test compound 0.1 μg/ml), the “y max, Noradrenaline + Test compound (B)” value came out at 1.50 ± 0.32 g tension and the “y max Difference (A − B)” value amounted to 0.81 ± 0.25 g tension. Moreover, in the assay on rat thoracic aorta (test compound 1 μg/ml), the “y max, Noradrenaline + Test compound (B)” value was found to be 1.13 ± 0.20 g tension and the “y max Difference (A − B)” value amounted to 1.02 ± 0.24 g tension.

For the compound `Oc1ccc(C2COc3cc(O)ccc3C2O)cc1` (stereo not drawn) [Cpd. 7], the “inhibition of linoleic acid oxidation by HRP/H2O2 compound I (in words)” value (“inhibition of linoleic acid oxidation” for short) in assay [1] is recorded as “able to inhibit linoleic acid oxidation by compound I as effectively as 25 mM BHT”. For the same compound, the “inhibition of AAPH-induced oxidation of linoleic acid, 234 nm absorbency (in words)” value (from here on “inhibition … 234 nm absorbency (in words)”) in assay [2] was “As for peroxyl radicals, neither Cpd. 7 nor Cpd. 8 were able to inhibit”. Moreover, in the assay on LDL, the “ability to scavenge free radicals (in words)” value was “significantly less active than Cpd. 8 and Cpd. 12 but still almost as active as ascorbate”. Besides, in the assay with rat thoracic aorta, the “dose dependency” value was “dose dependent” and the “antagonising the contractile response” value was “active but less potent than β-estradiol; also recorded: equipotent but less potent than Cpd. 12”. Also, in the assay on rat thoracic aorta (test compound 0.1 μg/ml), the “y max, Noradrenaline + Test compound (B)” value amounted to 1.41 ± 0.13 g tension and the “y max Difference (A − B)” value was 0.25 ± 0.25 g tension. In the assay on rat thoracic aorta (test compound 1 μg/ml), the “y max, Noradrenaline + Test compound (B)” value is recorded as 1.26 ± 0.34 g tension and the “y max Difference (A − B)” value turned out to be 1.38 ± 0.27 g tension.

In the case of `Oc1ccc(C2=Cc3ccc(O)cc3OC2)cc1` [Cpd. 12], in assay [1], the “inhibition of linoleic acid oxidation” value was “inhibitory activity of Cpd. 7 and Cpd. 8 was greater than of an equimolar amount of Cpd. 12”. Besides, the “inhibition … 234 nm absorbency (in words)” value in assay [2] is listed as “significantly inhibited the time-dependent increase in 234 nm absorbency”. The “ability to scavenge free radicals (in words)” value with LDL was “very active scavengers”. The “antagonising the contractile response” value in the assay with rat thoracic aorta was “comparable to β-estradiol; also recorded: most effective and comparable to 170-estradiol”. Moreover, in the assay with rat thoracic aorta (test compound 1 μg/ml), the “y max, Noradrenaline + Test compound (B)” value amounted to 0.80 ± 0.36 g tension and the “y max Difference (A − B)” value came to 2.27 ± 0.68 g tension.

`Oc1ccc(C2COc3cc(O)ccc3C2O)cc1` (stereo not drawn) [Cpd. 8]: the “inhibition of linoleic acid oxidation” value in assay [1] is “able to inhibit linoleic acid oxidation by compound I as effectively as 25 mM BHT”. Further, in assay [2], the “inhibition … 234 nm absorbency (in words)” value is “As for peroxyl radicals, neither Cpd. 7 nor Cpd. 8 were able to inhibit”. In addition, the “ability to scavenge free radicals (in words)” value in the assay on LDL was “very active scavengers”. In addition, in the assay on rat thoracic aorta, the “dose dependency” value was “dose dependent” and the “antagonising the contractile response” value is reported as “active but less potent than β-estradiol; also recorded: the least potent”. In addition, in the assay with rat thoracic aorta (test compound 0.1 μg/ml), the “y max, Noradrenaline + Test compound (B)” value was determined as 1.34 ± 1.20 g tension and the “y max Difference (A − B)” value is recorded as 0.56 ± 0.15 g tension. Also, in the assay with rat thoracic aorta (test compound 1 μg/ml), the “y max, Noradrenaline + Test compound (B)” value came to 0.86 ± 0.31 g tension and the “y max Difference (A − B)” value stood at 0.69 ± 0.28 g tension.
